Experiments:
[1] = Growth inhibition of human G361 cells at 10 to 150 ug/ml after 24 hrs by MTT assay relative to control; assay type: functional, G-361
[2] = Growth inhibition of human MCF7 cells after 24 hrs by MTT assay; assay type: functional, cell-based; details: MCF7, 24 h
[3] = system: Streptococcus pyogenes; test: Antibacterial activity against Streptococcus pyogenes MTCC 442 at 250 ug/ml after 24 hrs by agar well diffusion method; assay type: functional; details: MTCC 442, 24 h, read-out: IZ
[4] = molecular target: DNA gyrase subunit A (Staphylococcus aureus, UniProt P20831); test: Inhibition of Staphylococcus aureus DNA gyrase A expressed in Escherichia coli BL21(DE3) using relaxed pBR322 DNA as substrate incubated for 1 hr by bromophenol blue dye based agarose gel electrophoresis method
[5] = system: Staphylococcus aureus; test: Antibacterial activity against Staphylococcus aureus MTCC 96 at 250 ug/ml after 24 hrs by agar well diffusion method; assay type: functional; details: MTCC 96, 24 h, read-out: IZ
[6] = Growth inhibition of human MCF10 cells at 10 to 150 ug/ml after 24 hrs by MTT assay; assay type: cell-based; details: mcf10, 24 h
[7] = Growth inhibition of human MCF7 cells at 10 to 150 ug/ml after 24 hrs by MTT assay relative to control; assay type: functional
[8] = system: Escherichia coli; test: Antibacterial activity against Escherichia coli MTCC 443 at 250 ug/ml after 24 hrs by agar well diffusion method; assay type: functional; details: MTCC 443, 24 h, read-out: IZ
[9] = system: Pseudomonas aeruginosa; test: Antibacterial activity against Pseudomonas aeruginosa MTCC 424 at 250 ug/ml after 24 hrs by agar well diffusion method; assay type: functional; details: MTCC 424, 24 h, read-out: IZ
[10] = Growth inhibition of human G361 cells after 24 hrs by MTT assay; assay type: functional, cell-based; details: G-361, 24 h

Sequence of DNA gyrase subunit A (P20831 whole entry, the tested form may be a part): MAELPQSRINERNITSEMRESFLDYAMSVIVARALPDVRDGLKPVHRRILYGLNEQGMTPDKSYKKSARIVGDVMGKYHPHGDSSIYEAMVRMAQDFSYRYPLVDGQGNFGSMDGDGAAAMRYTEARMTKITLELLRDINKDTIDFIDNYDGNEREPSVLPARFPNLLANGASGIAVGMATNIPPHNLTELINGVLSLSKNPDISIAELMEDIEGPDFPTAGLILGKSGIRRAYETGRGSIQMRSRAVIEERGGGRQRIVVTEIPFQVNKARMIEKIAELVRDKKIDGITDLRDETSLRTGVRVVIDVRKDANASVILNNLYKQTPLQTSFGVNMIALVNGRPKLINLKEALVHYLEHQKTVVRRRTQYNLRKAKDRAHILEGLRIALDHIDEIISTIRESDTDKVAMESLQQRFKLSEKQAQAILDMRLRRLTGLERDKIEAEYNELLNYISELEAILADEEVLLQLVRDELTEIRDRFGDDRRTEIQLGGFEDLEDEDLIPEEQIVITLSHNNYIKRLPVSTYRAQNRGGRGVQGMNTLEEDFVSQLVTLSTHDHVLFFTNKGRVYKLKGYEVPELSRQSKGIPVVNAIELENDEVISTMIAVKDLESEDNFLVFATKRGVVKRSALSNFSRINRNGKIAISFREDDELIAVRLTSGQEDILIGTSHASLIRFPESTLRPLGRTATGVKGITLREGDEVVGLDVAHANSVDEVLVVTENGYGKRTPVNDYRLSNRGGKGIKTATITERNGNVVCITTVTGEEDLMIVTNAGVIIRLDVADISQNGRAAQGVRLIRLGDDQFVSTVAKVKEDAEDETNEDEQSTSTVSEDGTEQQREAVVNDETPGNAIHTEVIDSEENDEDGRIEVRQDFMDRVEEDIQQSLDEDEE

COc1ccc2nc(-c3cccc(Oc4ccccc4)c3)cc(-c3ccccc3)c2c1
growth inhibition (GI) [1]: 59.27%
IC50 [2]: 0.548 µM
zone of inhibition at 250 µg/mL [3]: 22.7 mm
IC50 [4]: 0.53 to 11.5 µM
zone of inhibition at 250 µg/mL [5]: 29.6 mm
growth inhibition (GI) [6]: Non-Toxic
growth inhibition (GI) [7]: 74.49%
zone of inhibition at 250 µg/mL [8]: 21.4 mm
zone of inhibition at 250 µg/mL [9]: 10.8 mm
IC50 [10]: 2.02 µM

Clc1ccc2nc(-c3cccc(Oc4ccccc4)c3)cc(-c3ccccc3)c2c1
growth inhibition (GI) [1]: 30.45%
IC50 [2]: 11 µM
zone of inhibition at 250 µg/mL [3]: 20.2 mm
IC50 [4]: 0.525 to 11.3 µM
zone of inhibition at 250 µg/mL [5]: 21.6 mm
growth inhibition (GI) [6]: Non-Toxic
growth inhibition (GI) [7]: 32.14%
zone of inhibition at 250 µg/mL [8]: 18.1 mm
zone of inhibition at 250 µg/mL [9]: 6.89 mm
IC50 [10]: 12 µM

Oc1c(Cl)cc2nc(-c3cccc(Oc4ccccc4)c3)cc(-c3ccccc3)c2c1Cl
growth inhibition (GI) [1]: 60.34%
IC50 [2]: 0.702 µM
zone of inhibition at 250 µg/mL [3]: 29.2 mm
IC50 [4]: 0.467 µM
zone of inhibition at 250 µg/mL [5]: 38.5 mm
growth inhibition (GI) [6]: Non-Toxic
growth inhibition (GI) [7]: 73.17%
zone of inhibition at 250 µg/mL [8]: 26 mm
zone of inhibition at 250 µg/mL [9]: 21.3 mm
IC50 [10]: 2 µM

Fc1ccc2nc(-c3cccc(Oc4ccccc4)c3)cc(-c3ccccc3)c2c1
growth inhibition (GI) [1]: 46.24%
IC50 [2]: 1.68 µM
zone of inhibition at 250 µg/mL [3]: 18.5 mm
IC50 [4]: 0.912 to 0.994 µM
zone of inhibition at 250 µg/mL [5]: 29.9 mm
growth inhibition (GI) [6]: Non-Toxic
growth inhibition (GI) [7]: 60.25%
zone of inhibition at 250 µg/mL [8]: 18.3 mm
zone of inhibition at 250 µg/mL [9]: 10.4 mm
IC50 [10]: 3.85 µM

Oc1ccc2nc(-c3cccc(Oc4ccccc4)c3)cc(-c3ccccc3)c2c1
growth inhibition (GI) [1]: 58.46%
IC50 [2]: 0.694 µM
zone of inhibition at 250 µg/mL [3]: 29.8 mm
IC50 [4]: 0.842 to 1.07 µM
zone of inhibition at 250 µg/mL [5]: 34.6 mm
growth inhibition (GI) [6]: Non-Toxic
growth inhibition (GI) [7]: 72.56%
zone of inhibition at 250 µg/mL [8]: 26.5 mm
zone of inhibition at 250 µg/mL [9]: 16.5 mm
IC50 [10]: 2.07 µM

Brc1ccc2nc(-c3cccc(Oc4ccccc4)c3)cc(-c3ccccc3)c2c1
growth inhibition (GI) [1]: 28.89%
IC50 [2]: 11.1 µM
zone of inhibition at 250 µg/mL [3]: 22.4 mm
IC50 [4]: 0.473 to 10.2 µM
zone of inhibition at 250 µg/mL [5]: 22.5 mm
growth inhibition (GI) [6]: Non-Toxic
growth inhibition (GI) [7]: 30.81%
zone of inhibition at 250 µg/mL [8]: 16.4 mm
zone of inhibition at 250 µg/mL [9]: 9.79 mm
IC50 [10]: 14.6 µM

Cc1cc2nc(-c3cccc(Oc4ccccc4)c3)cc(-c3ccccc3)c2cc1C
growth inhibition (GI) [1]: 38.18%
IC50 [2]: 3.41 µM
zone of inhibition at 250 µg/mL [3]: 22.5 mm
IC50 [4]: 0.533 to 11.5 µM
zone of inhibition at 250 µg/mL [5]: 27.5 mm
growth inhibition (GI) [6]: Non-Toxic
growth inhibition (GI) [7]: 48.34%
zone of inhibition at 250 µg/mL [8]: 22.5 mm
zone of inhibition at 250 µg/mL [9]: 11.4 mm
IC50 [10]: 5.84 µM

N#Cc1ccc2nc(-c3cccc(Oc4ccccc4)c3)cc(-c3ccccc3)c2c1
growth inhibition (GI) [1]: 54.38%
IC50 [2]: 0.822 µM
zone of inhibition at 250 µg/mL [3]: 21.2 mm
IC50 [4]: 0.537 to 11.6 µM
zone of inhibition at 250 µg/mL [5]: 26.5 mm
growth inhibition (GI) [6]: Non-Toxic
growth inhibition (GI) [7]: 70.64%
zone of inhibition at 250 µg/mL [8]: 16.5 mm
zone of inhibition at 250 µg/mL [9]: 12.7 mm
IC50 [10]: 2.15 µM

CO[C@@H]1[C@@H](OC(=O)c2ccc(C)[nH]2)[C@@H](O)[C@H](Oc2ccc3c(O)c(NC(=O)c4ccc(O)c(CC=C(C)C)c4)c(=O)oc3c2Cl)OC1(C)C [CHLOROBIOCIN]
IC50 [4]: 0.93 µM

O=C(O)c1cn(C2CC2)c2cc(N3CCNCC3)c(F)cc2c1=O [CIPROFLOXACIN]
zone of inhibition at 250 µg/mL [3]: 18 to 24.4 mm
zone of inhibition at 250 µg/mL [5]: 21 to 26.4 mm
zone of inhibition at 250 µg/mL [8]: 21 to 26.7 mm
zone of inhibition at 250 µg/mL [9]: 21 to 23.8 mm

COc1cccc2c1C(=O)c1c(O)c3c(c(O)c1C2=O)C[C@@](O)(C(=O)CO)C[C@@H]3O[C@H]1C[C@H](N)[C@H](O)[C@H](C)O1 [DOXORUBICIN]
IC50 [2]: 0.812 to 1.2 µM
growth inhibition (GI) [7]: 71.56%
